Data set [1] in a line: 13C breath test after intravenous administration of 13C-labeled compounds to ZDF rats (Lean and Fatty), fasting or feeding (Experimental Example 2). To be noted: for Δ13C(‰) of Fatty versus Lean rats: rat, in vivo, iv; for Δ13C(‰) in expired air, fasting state versus feeding state / transition of Δ13C(‰), Lean rats versus Fatty rats: intravenous; for transition of Δ13C(‰), Lean rats versus Fatty rats: ZDF rats, fasting and feeding groups. From the text: ZDF Fatty rat is an insulin-resistant test subject animal that has a low sensitivity to insulin, and develops a pathological condition similar to human adult type II diabetes and diabetes complication. In contrast, ZDF Lean rat is a healthy subject animal having normal blood glucose level and normal sensitivity to insulin. Lean and Fatty rats (A) were divided into a fasting group in which the rats were fasted from the previous day, and a feeding group. […] For (a) to (e), expired air was collected from rats (A), and for (f), expired air was collected and rats (B) (each group, n=3).
Expired air was obtained at time points (t minutes) from a time point before the administration of solutions (a) to (f) (0 minutes) to a time point 60 minutes after the administration, and Δ^13C(‰) was determined from ^13CO2 concentration in the expired air using an expired air analysis mass spectrometer (ABCA: product of SerCon).

The conditions of data set [2]: fasted Zucker rats. How it is done:
1-^13C-sodium palmitate was dissolved in hydrous ethanol at about 80° C. at a concentration of 500 μmol/mL.
Rats (male, Zucker rat) were used as experimental animals. The rats that were fasted from the previous day of the test were divided into two groups: oral administration group and intravenous administration group (each group, n=3), and the 1-^13C-sodium palmitate solution (20 μmol/2 mL) prepared in (1) was orally and intravenously administered at a dosage of 2 mL/kg. Expired air was collected at each time point (t minutes) from a time point before administration (0 minutes) to a time point 180 minutes after the administration, and Δ^13C(‰) was determined from the concentration of ^13CO2 in the expired air using an expired air analysis mass spectrometer (ABCA: product of SerCon).
The value of Δ^13C(‰) was determined by measuring a concentration ratio ^13CO2/^12CO2 in the expired air (δ^13C value) at each time point (t minutes) from a time point before the 1-^13C-sodium palmitate administration (0 minutes) to a time point after the administration, and calculating the Δ^13C(‰) value from the difference between the δ^13C value (δ^13Ct) at each point (t) and the δ^13C value before the administration (δ^13Co) (δ^13Ct-δ^13Co) (the same calculation is used in the Experimental Examples below).

For data set [3] the following is noted: ZDF Fatty vs Lean and OLETF vs LETO, 11 weeks. How it is done: These rats were divided into a fasting group in which the rats were fasted from the previous day, and a feeding group. 1-^13C-sodium palmitate solution prepared in Experimental Example 2 was intravenously administered (2 ml/kg) to each group (each group, n=3).
The conditions of data set [4]: for Δ13C(‰) in expired air, fasting state versus feeding state: intravenous 2 ml/kg. How it is done:
OLETF rats are type II diabetes test subject animal with obesity or/and fatty liver, and LETO rats serve as a control thereof (healthy subjects).
These rats were divided into a fasting group in which the rats were fasted from the previous day, and a feeding group. 1-^13C-sodium palmitate solution prepared in Experimental Example 2 was intravenously administered (2 ml/kg) to each group (each group, n=3). Expired air was collected at time points (t minutes) from a time point before the 1-^13C-sodium palmitate solution administration (0 minutes) to a time point 60 minutes after the administration, and Δ^13C(‰) was determined from the ^13CO2 concentration in the expired air using an expired air analysis mass spectrometer (ABCA: product of SerCon).

The mark [5] stands for this setting: ZDF Fatty rats (insulin-resistant).
Setting [6] is: ZDF Lean rats (healthy subjects).

From US10444229B2, “Method of measuring insulin resistance with fatty acid combustion, and composition used herein” (OTSUKA PHARMACEUTICAL CO., LTD., priority 2013, dated 2019) come the findings set out here.

Read-outs that look alike come from different tables or passages of the source.

As to `CCCCCCCCCCC[13C](=O)O` [1-^13C-lauric acid], the “Δ13C(‰) of Fatty versus Lean rats” value in data set [1] was “higher than that of the healthy subjects (Lean)”.

For the molecule `CCCCCCCC/C=C\CCCCCCC[13C](=O)O` [1-^13C-oleic acid], the “Δ13C(‰) in expired air, fasting state versus feeding state” value in data set [1] (setting [5]) and in data set [1] (setting [6]) was “higher in the fasting (hunger) state than in the feeding state” throughout. The “Δ13C(‰) of Fatty versus Lean rats” value in data set [1] was “higher than that of the healthy subjects (Lean)”.

Consider `C[13C](=O)[O-].[Na+]` [1-^13C-sodium acetate, reference compound], for which the “transition of Δ13C(‰), Lean rats versus Fatty rats” value in data set [1] was “little difference between the results of Lean rats and the results of Fatty rats”.

Take `CCCCCCC[13C](=O)[O-].[Na+]` [1-^13C-sodium octanoate, reference compound]: the “transition of Δ13C(‰), Lean rats versus Fatty rats” value in data set [1] was “little difference between the results of Lean rats and the results of Fatty rats”.

For `CCCCCCCCCCCCCCC[13C](=O)[O-].[Na+]` [1-^13C-sodium palmitate], the “excretion in expired air” value in data set [2] is “excreted in expired air as ^13CO2”. Besides, the “time of Δ13C(‰) peak in expired air after administration” value in data set [2] (intravenous administration, 2 mL/kg of 20 μmol/2 mL) is not above 10 min. In addition, in data set [2] (oral administration, 2 mL/kg of 20 μmol/2 mL, 0-180 minutes), the “transition of Δ13C(‰) in expired air” value is “little variation among respective measurement times”. Besides, the “transition of Δ13C(‰), insulin-nonresistant hyperinsulinemia test subject versus healthy subject” value in data set [3] (fasting state) is on record as “little difference”. Also, the “Δ13C(‰) value, insulin-nonresistant hyperinsulinemia test subject versus healthy subject” value in data set [3] (feeding state) is on record as “significantly lower than that of the healthy subject”. The “Δ13C(‰) in expired air, fasting state versus feeding state” value in data set [1] (setting [5]) is on record as “higher in the fasting (hunger) state than in the feeding state”; in data set [1] (setting [6]), “higher in the fasting (hunger) state than in the feeding state”; in data set [4] (LETO rats (healthy subjects)) it was “higher in the fasting (hunger) state than in the feeding state”; in data set [4] (OLETF rats (insulin-resistant, liver disease)) it was “higher in the fasting (hunger) state than in the feeding state”. The “Δ13C(‰) of Fatty versus Lean rats” value in data set [1] is recorded as “higher than that of the healthy subjects (Lean)”. In addition, the “Δ13C(‰) of OLETF versus LETO rats” value in data set [4] (fasting group and feeding group, period until 15 minutes after intravenous administration) is “higher than that of the healthy subjects (LETO)”.
